The record followed here is US20100016208A1, “PHOTOACTIVATABLE ANTIMICROBIAL AGENTS” (priority 2005, published 2010).

Data set [1] is described as follows: Fluorescence emission spectra of prodrug vs. free photosensitizer (TBO). The format is physicochemical. The following applies: ethanol, 635 nm excitation.
Data set [2] has as its target β-lactamase from Enterobacter cloacae (Enterobacter cloacae, UniProt P05364). The experiment in a line: Enzyme-mediated cleavage of the prodrug (fluorescence emission, photosensitizer release). The format is biochemical. How it is done:
Enzyme-mediated cleavage of the prodrug The prodrug obtained was further studied for release of photosensitizer in presence of β-lactamase from Enterobacter cloacae. For the fluorescence emission study of the prodrug, the solvent employed was water, and the excitation wavelength 635 nm in the presence of beta-lactamase enzyme (from Enterobacter cloacae). Time-dependent fluorescence emission was also measured for photosensitizer release from the prodrug in the presence of enzyme. […] Thus, the prodrug was synthesized and characterized.

β-lactamase from Enterobacter cloacae, sequence (P05364 21-381): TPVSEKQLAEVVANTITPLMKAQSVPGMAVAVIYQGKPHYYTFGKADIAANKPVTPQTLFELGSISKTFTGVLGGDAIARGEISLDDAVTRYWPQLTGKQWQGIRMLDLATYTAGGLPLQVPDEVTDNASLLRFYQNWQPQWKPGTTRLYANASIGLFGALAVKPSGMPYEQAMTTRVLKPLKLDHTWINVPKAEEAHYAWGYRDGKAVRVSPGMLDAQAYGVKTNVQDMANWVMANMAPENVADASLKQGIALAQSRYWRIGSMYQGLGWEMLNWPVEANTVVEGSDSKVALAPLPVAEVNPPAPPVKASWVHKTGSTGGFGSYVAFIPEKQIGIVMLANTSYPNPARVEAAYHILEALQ

Regarding “Cephalosporanic Acid-Toluidine BlueO Prodrug”, the “reduction in fluorescence emission maxima (quenching of the photosensitizer upon conjugation with the cephalosporin moiety)” value in data set [1] was ~8 fold. For the same substance, the “enzyme specificity of photosensitizer release” value in data set [2] (beta-lactamase enzyme (from Enterobacter cloacae)) was “lactamase-specific activity”. In data set [2] (water, 635 nm excitation, within minutes of incubation of prodrug with enzyme), the “increase in excited stated properties (fluorescence emission) on incubation with enzyme” value was ~5 fold.
